Literature values, collected in patent publication US20070028401A1, “Powdered preparations containing a mixture of 2,4,6-trianilino-p-(carbo-2'-ethylhexyl-1'-oxi)-1,3,5-triazine and diethylamino-hydroxybenzoyl-hexyl-benzoate” (BASF Aktiengesellschaft, priority 2003, published 2007).
Where two headings read alike, the source gives them in different places.

SMILES | absorbance coefficient (at 314 nm) | absorbance coefficient (at 354 nm)
CCCCC(CC)COC(=O)c1ccc(Nc2nc(Nc3ccc(C(=O)OCC(CC)CCCC)cc3)nc(Nc3ccc(C(=O)OCC(CC)CCCC)cc3)n2)cc1 (centres unmarked) [Uvinul T150, 2,4,6-Trianilino-p-(carbo-2′-ethylhexyl-1′-oxy)-1,3,5-triazine] | > 1500 | 
CCCCCCOC(=O)c1ccccc1C(=O)c1ccc(N(CC)CC)cc1O [Uvinul® A Plus, Diethylamino hydroxybenzoyl hexyl benzoate] |  | 940
